Measured values taken from ChEMBL document CHEMBL1201862, “PubChem BioAssay data set” (2004).
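Grown in 96-well plates, cells were treated for 48 hours with each compound at five concentrations. Insufficient inhibition: endpoint recorded as highest concentration tested. Here, GI50 denotes the concentration required for 50% inhibition of growth.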 Active and inactive are the calls of the source. Cut-off read from the data, not from the text of the source: active = GI50 up to about 1.1 µM and inactive = higher.

What was measured:
Assay in all cases: inhibition of tumour cell growth, NCI panel, 48 h
[1] = test system: U-251
[2] = test system: HOP-92
[3] = test system: NCI-H522
[4] = test system: SNB-19
[5] = test system: UO-31
[6] = test system: HCC 2998
[7] = test system: K562
[8] = test system: HOP-18
[9] = test system: RPMI-8226
[10] = test system: COLO 205
[11] = test system: OVCAR-4
[12] = test system: OVCAR-5
[13] = test system: NCI/ADR-RES
[14] = test system: SF-268
[15] = test system: NCI-H226
[16] = test system: SK-MEL-28
[17] = test system: SN12C
[18] = test system: M19-MEL
[19] = test system: DLD-1
[20] = test system: SF-295
[21] = test system: SNB-78
[22] = test system: UACC-62
[23] = test system: HL-60
[24] = test system: HCT-15
[25] = test system: DMS-273
[26] = test system: SK-MEL-2
[27] = test system: Malme-3M
[28] = test system: SK-OV-3
[29] = test system: KM-20L2
[30] = test system: CCRF-CEM
[31] = test system: MOLT-4
[32] = test system: SK-MEL-5
[33] = test system: UACC-257
[34] = test system: SNB-75
[35] = test system: NCI-H23
[36] = test system: MCF7
[37] = test system: LOX IMVI
[38] = test system: SF-539
[39] = test system: KM12
[40] = test system: HT-29
[41] = test system: IGROV-1
[42] = test system: A549
[43] = test system: EKVX
[44] = test system: OVCAR-8
[45] = test system: HCT-116
[46] = test system: NCI-H460
[47] = test system: OVCAR-3
[48] = test system: RXF 393
[49] = test system: CAKI-1
[50] = test system: SW-620
[51] = test system: A498
[52] = test system: DMS-114
[53] = test system: LXFL 529
[54] = test system: TK-10
[55] = test system: HOP-62
[56] = test system: SR
[57] = test system: 786-0
[58] = test system: ACHN
[59] = test system: M14
[60] = test system: DU-145
[61] = test system: MDA-MB-435
[62] = test system: PC-3
[63] = test system: BT-549
[64] = test system: MDA-N
[65] = test system: Hs-578T
[66] = test system: MDA-MB-231
[67] = test system: T47D

In the case of `CC(C)=CCc1c(O)ccc2ccc(=O)oc12` [OSTHENOL], the GI50 [1] was 21.9 µM (inactive), the GI50 [2] was 38.4 µM (inactive) and the GI50 [3] was 48.2 µM (inactive). For the same molecule, the GI50 [4] was > 51.9 µM (inactive), the GI50 [5] was 29.4 µM (inactive) and the GI50 [6] was 45.8 µM (inactive). For the same molecule, the GI50 [7] was 37.6 µM (inactive), the GI50 [8] was 43.6 µM (inactive) and the GI50 [9] was 26.7 µM (inactive). The GI50 [10] was > 100 µM (inactive), the GI50 [11] was 37.8 µM (inactive) and the GI50 [12] was > 31.6 µM (inactive). For the same molecule, the GI50 [13] was 20.9 µM (inactive), the GI50 [14] was 33.7 µM (inactive) and the GI50 [15] was 47.6 µM (inactive). For the same molecule, the GI50 [16] was 49.4 µM (inactive), the GI50 [17] was > 91.8 µM (inactive) and the GI50 [18] was 47.1 µM (inactive). For the same molecule, the GI50 [19] was > 100 µM (inactive), the GI50 [20] was 45.6 µM (inactive) and the GI50 [21] was 32 µM (inactive). The GI50 [22] was 44.6 µM (inactive), the GI50 [23] was 28.2 µM (inactive) and the GI50 [24] was 60.1 µM. The GI50 [25] was 63.7 µM (inactive), the GI50 [26] was 45.7 µM (inactive) and the GI50 [27] was 38.2 µM (inactive). For the same molecule, the GI50 [28] was > 100 µM (inactive), the GI50 [29] was > 100 µM (inactive) and the GI50 [30] was 33.9 µM (inactive). For the same molecule, the GI50 [31] was 26.9 µM (inactive), the GI50 [32] was 15.3 µM (inactive) and the GI50 [33] was 33 µM (inactive). For the same molecule, the GI50 [34] was 54.5 µM (inactive), the GI50 [35] was 55.5 µM (inactive) and the GI50 [36] was 34.9 µM (inactive). For the same molecule, the GI50 [37] was 51.5 µM (inactive), the GI50 [38] was 24 µM (inactive) and the GI50 [39] was > 75.5 µM (inactive). For the same molecule, the GI50 [40] was > 100 µM (inactive), the GI50 [41] was > 68.5 µM (inactive) and the GI50 [42] was 5.83 µM (inactive). For the same molecule, the GI50 [43] was 51.6 µM (inactive), the GI50 [44] was 53 µM (inactive) and the GI50 [45] was 57.4 µM (inactive). For the same molecule, the GI50 [46] was > 73.5 µM (inactive), the GI50 [47] was 60.1 µM (inactive) and the GI50 [48] was 38.5 µM (inactive). For the same molecule, the GI50 [49] was > 61.5 µM (inactive), the GI50 [50] was > 100 µM (inactive) and the GI50 [51] was 54.8 µM (inactive). For the same molecule, the GI50 [52] was 27.9 µM (inactive).
For `O=C1C=C/C(=N\c2ccc3c(c2)C(Br)c2ccccc2-3)O1` (stereo unspecified), the GI50 [1] was > 100 µM (inactive), the GI50 [3] was 25.9 µM (inactive) and the GI50 [4] was > 100 µM (inactive). For the same molecule, the GI50 [5] was > 100 µM (inactive), the GI50 [6] was > 100 µM (inactive) and the GI50 [7] was 42.8 µM (inactive). For the same molecule, the GI50 [9] was 68.2 µM (inactive), the GI50 [10] was > 100 µM (inactive) and the GI50 [14] was > 100 µM (inactive). For the same molecule, the GI50 [16] was > 100 µM (inactive), the GI50 [17] was 21.5 µM (inactive) and the GI50 [18] was > 100 µM (inactive). For the same molecule, the GI50 [53] was 28.8 µM (inactive), the GI50 [19] was > 100 µM (inactive) and the GI50 [20] was > 100 µM (inactive). The GI50 [54] was > 100 µM (inactive), the GI50 [21] was > 100 µM (inactive) and the GI50 [22] was 61.5 µM (inactive). For the same molecule, the GI50 [23] was 10.2 µM (inactive), the GI50 [24] was > 100 µM and the GI50 [25] was > 10 µM (inactive). The GI50 [55] was > 100 µM (inactive), the GI50 [27] was > 100 µM (inactive) and the GI50 [56] was 20.2 µM (inactive). For the same molecule, the GI50 [28] was > 100 µM (inactive), the GI50 [30] was 26.8 µM (inactive) and the GI50 [31] was 26.8 µM (inactive). For the same molecule, the GI50 [33] was > 100 µM (inactive), the GI50 [34] was > 100 µM (inactive) and the GI50 [35] was > 100 µM (inactive). For the same molecule, the GI50 [37] was 45.6 µM (inactive), the GI50 [38] was > 100 µM (inactive) and the GI50 [41] was > 100 µM (inactive). For the same molecule, the GI50 [42] was > 100 µM (inactive), the GI50 [43] was 52 µM (inactive) and the GI50 [44] was 72.6 µM (inactive). The GI50 [45] was > 100 µM (inactive), the GI50 [46] was > 100 µM (inactive) and the GI50 [47] was > 100 µM (inactive). The GI50 [48] was > 100 µM (inactive), the GI50 [57] was 29 µM (inactive) and the GI50 [50] was 27.6 µM (inactive). For the same molecule, the GI50 [58] was > 100 µM (inactive), the GI50 [59] was > 100 µM (inactive) and the GI50 [52] was 92.7 µM (inactive).
`COc1ccc(/N=N/C(=O)NC(CC(C)C)C(=O)NCC(=O)O)cc1` (stereo unspecified) was tested, and the GI50 [1] was > 100 µM (inactive), the GI50 [60] was 12.2 µM (inactive) and the GI50 [2] was > 100 µM (inactive). The GI50 [3] was 22.5 µM (inactive), the GI50 [4] was > 92.5 µM (inactive) and the GI50 [5] was 1.04 µM (active). The GI50 [6] was 8.97 µM (inactive), the GI50 [61] was 1.5 µM (inactive) and the GI50 [62] was 4.17 µM (inactive). For the same molecule, the GI50 [7] was 0.451 µM (active), the GI50 [9] was 11.7 µM (inactive) and the GI50 [10] was 4.47 µM (inactive). The GI50 [11] was > 51.5 µM (inactive), the GI50 [63] was > 38.7 µM (inactive) and the GI50 [12] was 13.5 µM (inactive). The GI50 [13] was 19.5 µM (inactive), the GI50 [14] was > 43.8 µM (inactive) and the GI50 [15] was > 41 µM (inactive). The GI50 [16] was 57.7 µM (inactive), the GI50 [17] was > 46.8 µM (inactive) and the GI50 [64] was 26.6 µM (inactive). The GI50 [20] was 5.53 µM (inactive), the GI50 [54] was 25.3 µM (inactive) and the GI50 [22] was 1.61 µM (inactive). For the same molecule, the GI50 [23] was 5.9 µM (inactive), the GI50 [24] was 1.46 µM and the GI50 [55] was 41.6 µM (inactive). For the same molecule, the GI50 [26] was > 18.4 µM (inactive), the GI50 [27] was 19.7 µM (inactive) and the GI50 [56] was 19.5 µM (inactive). For the same molecule, the GI50 [28] was > 100 µM (inactive), the GI50 [30] was 9.31 µM (inactive) and the GI50 [31] was 1.83 µM (inactive). The GI50 [65] was 89.3 µM (inactive), the GI50 [32] was 3.79 µM (inactive) and the GI50 [33] was 32.8 µM (inactive). The GI50 [34] was 89.5 µM (inactive), the GI50 [35] was 57.3 µM (inactive) and the GI50 [36] was 13.2 µM (inactive). The GI50 [37] was 1.37 µM (inactive), the GI50 [38] was 4.18 µM (inactive) and the GI50 [39] was 3.76 µM (inactive). For the same molecule, the GI50 [40] was 14.8 µM (inactive), the GI50 [41] was 6.27 µM (inactive) and the GI50 [42] was 3.29 µM (inactive). The GI50 [43] was 43.4 µM (inactive), the GI50 [44] was 21.3 µM (inactive) and the GI50 [66] was > 58.2 µM (inactive). The GI50 [45] was 12.5 µM (inactive), the GI50 [46] was 6.65 µM (inactive) and the GI50 [47] was 19.8 µM (inactive). For the same molecule, the GI50 [48] was > 100 µM (inactive), the GI50 [49] was > 100 µM (inactive) and the GI50 [57] was > 100 µM (inactive). For the same molecule, the GI50 [50] was 12.8 µM (inactive), the GI50 [67] was 3.03 µM (inactive) and the GI50 [58] was 1.54 µM (inactive). For the same molecule, the GI50 [59] was 2.94 µM (inactive) and the GI50 [51] was > 100 µM (inactive).
